We go through 1 substance from US6921530B1, “Low dose IL-2 for potentiation of immunity” (Cornell Research Foundation, Inc., priority 1999, dated 2005).

Values joined by “and” are separate entries in the source; they are usually repeats but may differ in a detail not shown here. Equal entries are not always repeated.

One series has as its system HCV. The note with it: cited from earlier work.
A short description of series [1]: Tolerability of daily IL-2 doses in earlier studies of the applicant. Type of series: in vivo. The method, then: a) IL-2: The initial dose of IL-2 used in this study is based on our studies in HIV infection. Individuals with HIV were able to tolerate rIL-2 at 1.2×10^6 IU/m^2/day. […] Peak plasma levels are measured at two hours after initial IL-2 injection. Dosage adjustments of IL-2 are made under the following circumstances:
(1) IL-2 Dosage reduction: If a subject experiences WHO grade I systemic toxicity, and is unable to tolerate the daily dose of rIL-2 at 1.2×10^6 IU/m^2/day, the dose is reduced to 0.9×10^6 IU/m^2/day. In the event that toxicity continues, the dose is decreased to 0.75 IU/m^2/day, which is halfway between the previous dose and the dose we have previously determined to be ineffective (0.6 IU/m^2/d).
This dose is midway between the starting dose and the dose found to be toxic in 100% of patients (2.4×10^6 IU /m^2/d). In the event that toxicity occurs, the dose is adjusted to 1.4×10^6 IU 1m^2/day, and if there is still toxicity, the dose will be returned to 1.2×10^6 IU /m^2/day.

In series [2] the test system is HIV p24-reactive T cells and NK cells. Nature of the series: Activation markers after 18 h whole blood activation with HIV p24 (flow cytometry). Type of series: cell-based, human. From the text:
FIG. 4 Expression of activation markers of CD4+ T cells and CD4− T cells after stimulation with HIV p24. Vertical axis=CD4, upper row horizontal axis=CD69, middle row=CD25, lower row=IFN-γ. A=subject #1, B=subject #2, C=subject #3, and D=subject #8. Numbers in right quadrants represent the % of CD4+ (upper) and CD4− (lower) T cells that reacted with the monoclonal antibody directed against the respective activation marker. The numbers in the column on the right represent the mean±SEM of the percentage positive cells from all 4 subjects. The values for control cultures, which received monoclonal antibodies reactive with accessory molecules alone (CD28 & CD49d) without HIV p24, were subtracted from the plots and percentages shown.
To identify activated cells, whole blood (1 ml) was cultured for 18 hours with the co-stimulatory antibodies anti-CD28 and anti-CD49d, and HIV p24 antigen (1 μg/ml, Research Diagnostics, Inc., Flanders N.J.) and cytomegalovirus antigen (1 μg/ml, Advanced Biotechnologies, Columbia, Md.). At the end of the incubaton the erythrocytes were lysed using FACSLysing Solution™ (9 ml). The cells were then either frozen at −70° C. in 2 ml RPMI 1640 medum with 10% Dimethyl Sulfoxide (Sigma, St. Louis, Mo.) or permeabilized with FACSPerm Solution™ (2 ml). Thereafter the cells were reacted with anti-CD3-PerCP, anti-CD4-PE, anti-CD8-PE, anti-CD56-PE, anti-CD69-FITC, anti-CD25-FITC, and anti-IFN-γ-FITC. All antibodies were from Becton Dickinson.
FIG. 5 Expression of interferon γ (IFN-γ) by CD-3+ and CD3− lymphocytes. A. Cells examined for size and granularity (left panel), CD3 expression (middle panel), and CD8 expression (right panel). B. Expression of IFN-γ and CD56 by CD3+ cells (gate R2), according to CD8− cells (gate R4, left panels), CD8 dim (gate R5, middle panels), and CD8+ (gate R6, right panels). Control cultures stimulated only with accessory antibodies (upper panels, HIV p24-stimulated cultures (lower panels). C. Expression of IFN-γ and CD56 by CD3− cells (gate R3), according to CD8− cells (gate R4, left panels), CD8dim (gate 5, middle panels) and CD8+ (gate R6, right panels). Control cultures stimulated only with accessory antibodies (upper panes, antiCD28, CD49d), HIV p-24-stimulated cultures (lower panels). Numbers in upper quadrants represent the percentages of CD56− and CD56+ cells that also reacted with anti-IFN-γ. To examine the activation of T cells and NK cells together, the cells were reacted with anti-CD3-PerCP, anti-CD8-PE, and anti-CD56-FITC, together with anti-IFN-γ-APC, all from Becton Dickinson.
To examine the HIV specific reactivity of CD4+ T cells, we performed an 18-hour activation of whole blood with HIV p24 followed by a 4-hour incubation with Brefeldin A to inhibit secretion. Subsequently, the cells were examined by flow cytometry after reaction with fluorochrome-conjugated monoclonal antibodies. Shown in FIG. 4 are the results from experiments performed with blood from the subjects who underwent a second treatment interruption when they had experienced the second CD8+ T lymphocytosis and had reached a stable concentration of plasma virus. Only CD3+ T cells were examined. […] In addition, subjects #1, 2 and 8 also expressed IFN-γ (mean 2.0%±1.2% SEM), while subject #3 had reactivity just above the limits of detection (0.2%). Also depicted in FIG. 4 are the results of the activation markers expressed by CD4− T cells, which are all CD8+, as determined by direct analysis for CD8 expression. There were also CD4− T cells stimulated to express CD69 (mean 3.2%±2.1% SEM) and CD25 (mean 1.9%±0.9% SEM). Moreover, CD4− T cells from subjects #1 and 2 also expressed IFN-γ, whereas the cells from subject 3 and 8 were at the level of detection (0.1%).
It was unexpected to find CD3+, CD4− cells capable of expressing surface markers of activation, and as well, producing detectable intracellular IFN-γ after HIV p24 stimulation. […]

Where [3] appears, read: 4 subjects after second treatment interruption, mean ± SEM.
The mark [4] stands for this setting: subject #1, HIV antigen activated.

On to Interleukin-2 [IL-2], for which, in the series on HCV (33 subjects, s.c., 12 weeks, no IFN), the “dose best tolerated and most effective” value was 2×10^6 CT/day. The sustained virologic response result in the series on HCV (in vivo) was “No sustained virologic response was found”. In addition, the “biochemical response rate (normalization of ALT) at the end of treatment” value in the series on HCV (preferred dose, 12 weeks) is reported as 24%. Also, the “biochemical response rate 6 months following a 12 week course” value in the series on HCV (preferred dose) is 12%. The “patients in whom the dose was toxic” value in series [1] (2.4×10^6 IU /m^2/d) came out at 100%. In addition, the “dose previously determined to be ineffective” value in series [1] (in vivo) stood at 0.6 IU/m^2/d. In series [1] (individuals with HIV), the tolerated daily dose is recorded as 1.2×10^6 IU/m^2/day. Moreover, in series [2] (setting [3]), the “CD4+ T cells stimulated by HIV p24 to express CD25” value was 15.5%±2.1% and 15.5%; the “CD4+ T cells stimulated by HIV p24 to express CD69” value was 4.3%±0.45; the “CD4− T cells stimulated by HIV p24 to express CD25” value was 1.9%±0.9%; the “CD4− T cells stimulated by HIV p24 to express CD69” value is 3.2%±2.1%. In addition, the “CD4− T cells expressing IFN-γ” value in series [2] (subject 3 and 8, at the level of detection) worked out at 0.1%. In addition, in series [2] (setting [4]), the “CD3-, CD8-dim cells that are CD56+ producing IFN-γ” value worked out at 28% and the “CD3−, CD8− cells that express CD56 producing IFN-γ” value worked out at 33%. Moreover, the “CD4+ T cells stimulated by HIV p24 to express IFN-γ” value in series [2] (subject #3, just above the limits of detection) was 0.2%. In series [2] (subjects #1, 2 and 8, mean ± SEM), the “CD4+ T cells stimulated by HIV p24 to express IFN-γ” value is on record as 2.0%±1.2%.
